For data set [1], the system named is Corynebacterium. The data set can be described thus: Antimicrobial activity against Corynebacterium at 50 ug/disk after 48 hrs. It counts as functional. Conditions: read-out: IZ.
For data set [2], the system named is Flavobacterium. The data set is described as follows: Antimicrobial activity against Flavobacterium at 50 ug/disk after 48 hrs. Format: functional. Conditions: read-out: IZ.
Data set [3] concerns Flavobacterium. The data set can be described thus: Antimicrobial activity against Flavobacterium at 10 ug/disk after 48 hrs. Format: functional. Conditions: read-out: IZ.
The subject of data set [4] is Corynebacterium. The data set is described as follows: Antimicrobial activity against Corynebacterium at 10 ug/disk after 48 hrs. Format: functional. Conditions: read-out: IZ.
A further data set has as its system Carassius auratus. The data set can be described thus: Toxicity against goldfish at 500 ug. Conditions: in vivo. Format: organism-based.
The test system of data set [5] is Bacillus. The data set can be described thus: Antimicrobial activity against Bacillus at 50 ug/disk after 48 hrs. Conditions: read-out: IZ. Format: functional.
The next data set relates to Vibrio. The data set is described as follows: Antimicrobial activity against Vibrio at 50 ug/disk after 48 hrs. It counts as functional. Conditions: read-out: IZ.
In the next data set the test system is Alteromonas. The data set can be described thus: Antimicrobial activity against Alteromonas at 50 ug/disk after 48 hrs. Format: functional. Conditions: read-out: IZ.
Data set [6] concerns Bacillus. The data set is described as follows: Antimicrobial activity against Bacillus at 10 ug/disk after 48 hrs. It counts as functional. Conditions: read-out: IZ.

For 1 molecule, zone of inhibition and Activity results are on record in ChEMBL document CHEMBL1158907, “2,3,4-Tribromopyrrole from the Marine Polychaete Polyphysia crassa” (J Nat Prod, 1990).

Bounds are passed on as bounds.

As for `Brc1c[nH]c(Br)c1Br`, the zone of inhibition at 50 µg/disc in the data set with Corynebacterium [1], in the data set with Flavobacterium [2], with Bacillus [5], in the data set with Vibrio and in the data set with Alteromonas was greater than 5 mm in each case. Further, the zone of inhibition at 10 µg/disc with Flavobacterium [3], in the data set with Corynebacterium [4] and in the data set with Bacillus [6] was 2 mm in each case. In addition, the Activity result in the data set on Carassius auratus is “Non-toxic”.
